Consider 15 compounds from US9834571B2, “Compounds for inhibiting cell proliferation in EGFR-driven cancers” (ARIAD Pharmaceuticals, Inc., priority 2012, dated 2017).

The term IC50 denotes the point on the concentration scale where inhibition reaches its midpoint.

A value given as a limit tells only on which side of the number the result lay.

Assay [1] has as its target human EGFR (native sequence) (Homo sapiens, UniProt P00533). As to the kind of experiment: Kinase inhibitory activity against human EGFR (native sequence). The class given is biochemical. The conditions noted are these: human EGFR native sequence; 10 μM ATP; read-out: IC50 for kinase inhibition, EGFR. The procedure, abridged: (§1)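 Ten-point dose-response curves were run in singlicate from a 3 μM top concentration, with ATP at 10 μM.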

For another assay, the target named is EGFR L858R (Homo sapiens, UniProt P00533, L858R). As to the kind of experiment: Kinase inhibitory activity against EGFR bearing the L858R mutation. It is filed as biochemical. The conditions noted are these: EGFR L858R; 10 μM ATP; read-out: IC50 for kinase inhibition, EGFR L858R. Put shortly: as §1
For another assay, the target named is EGFR L858R/T790M (Homo sapiens, UniProt P00533, L858R/T790M). As to the kind of experiment: Kinase inhibitory activity against EGFR bearing the L858R/T790M double mutation. The conditions noted are these: EGFR L858R/T790M double mutation; 10 μM ATP; read-out: IC50 for kinase inhibition, EGFR L858R T790M. It is filed as biochemical. Put shortly:
as §1

The target of assay [2] is T1, BaF3 cells expressing the target EGFR mutations (Homo sapiens, UniProt P00533, T790M, cells depend on it, form not given).
T1 construct: IC50, BAF3 EGFR DEL T790M PURO POOL; other: BAF3 EGFR DEL T790M PURO POOL cells, MTT; other: BAF3 EGFR DEL T790M PURO POOL cells; MTT
Nature of the assay: Antiproliferative activity (MTT) against BaF3 cells expressing the target EGFR mutations. The class given is cell-based. Conditions: BAF3 EGFR DEL T790M PURO POOL cells, read-out: IC50, BAF3 EGFR DEL T790M PURO POOL. The procedure, abridged: (§2)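 Growth inhibition of EGFR-mutant BaF3 cells was assessed with an MTT assay. A BaF3 line expressing wildtype EGFR served as comparator.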

The target of assay [3] is T2, BaF3 cells expressing the target EGFR mutations (Homo sapiens, UniProt P00533, T790M/L858R, cells depend on it).
T2 construct: IC50, BAF3 EGFR L858R-T790M PURO POOL; other: BAF3 EGFR L858R-T790M PURO POOL cells, MTT; IC50, BAF3 EGFR L858R-T790M PURO POOL; other: BAF3 EGFR L858R-T790M PURO POOL cells; MTT
The description is as above. It is filed as cell-based. The conditions noted are these: BAF3 EGFR L858R-T790M PURO POOL cells, read-out: IC50, BAF3 EGFR L858R-T790M PURO POOL. Put shortly: as §2

Assay [4] has as its system BaF3 cells expressing wildtype EGFR. As to the kind of experiment: Antiproliferative activity (MTT) against control BaF3 cells expressing wildtype EGFR. The class given is cell-based. The conditions noted are these: Mus musculus, BAF3 PARENTAL cells (control). The procedure, abridged:
as §2

Chain of EGFR L858R (P00533 25-1210 L858R): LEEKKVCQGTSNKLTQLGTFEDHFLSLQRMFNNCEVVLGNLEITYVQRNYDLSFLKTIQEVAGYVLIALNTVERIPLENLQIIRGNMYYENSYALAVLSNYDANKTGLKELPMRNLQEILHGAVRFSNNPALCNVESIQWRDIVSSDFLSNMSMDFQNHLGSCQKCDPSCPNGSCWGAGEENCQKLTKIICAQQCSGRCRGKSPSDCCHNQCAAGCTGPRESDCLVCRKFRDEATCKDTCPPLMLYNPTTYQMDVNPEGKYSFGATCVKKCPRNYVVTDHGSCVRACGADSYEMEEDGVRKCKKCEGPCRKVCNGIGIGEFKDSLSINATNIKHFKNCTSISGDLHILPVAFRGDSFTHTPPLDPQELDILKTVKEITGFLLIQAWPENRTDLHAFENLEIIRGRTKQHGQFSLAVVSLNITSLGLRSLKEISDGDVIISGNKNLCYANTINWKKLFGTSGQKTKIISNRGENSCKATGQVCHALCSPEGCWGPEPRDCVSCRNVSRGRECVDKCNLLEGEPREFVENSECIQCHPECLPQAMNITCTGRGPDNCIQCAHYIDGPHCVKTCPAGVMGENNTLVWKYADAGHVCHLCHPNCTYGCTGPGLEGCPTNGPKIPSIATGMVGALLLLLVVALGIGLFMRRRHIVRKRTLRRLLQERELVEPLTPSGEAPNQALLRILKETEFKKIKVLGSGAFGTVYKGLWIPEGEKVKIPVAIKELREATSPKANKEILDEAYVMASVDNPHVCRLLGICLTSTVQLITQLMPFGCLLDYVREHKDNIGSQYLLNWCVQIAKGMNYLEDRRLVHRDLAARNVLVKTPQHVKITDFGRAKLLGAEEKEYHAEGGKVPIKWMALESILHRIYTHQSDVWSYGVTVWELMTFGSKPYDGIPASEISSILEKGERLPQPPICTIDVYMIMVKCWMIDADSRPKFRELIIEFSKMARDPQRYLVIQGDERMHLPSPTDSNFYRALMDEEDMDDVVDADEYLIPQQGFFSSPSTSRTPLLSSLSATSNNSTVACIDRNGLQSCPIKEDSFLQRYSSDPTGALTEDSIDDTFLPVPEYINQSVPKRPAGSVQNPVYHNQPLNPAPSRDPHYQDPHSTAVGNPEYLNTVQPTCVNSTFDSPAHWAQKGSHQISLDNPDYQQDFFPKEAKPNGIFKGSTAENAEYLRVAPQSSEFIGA
Chain of EGFR L858R/T790M (P00533 25-1210 T790M/L858R): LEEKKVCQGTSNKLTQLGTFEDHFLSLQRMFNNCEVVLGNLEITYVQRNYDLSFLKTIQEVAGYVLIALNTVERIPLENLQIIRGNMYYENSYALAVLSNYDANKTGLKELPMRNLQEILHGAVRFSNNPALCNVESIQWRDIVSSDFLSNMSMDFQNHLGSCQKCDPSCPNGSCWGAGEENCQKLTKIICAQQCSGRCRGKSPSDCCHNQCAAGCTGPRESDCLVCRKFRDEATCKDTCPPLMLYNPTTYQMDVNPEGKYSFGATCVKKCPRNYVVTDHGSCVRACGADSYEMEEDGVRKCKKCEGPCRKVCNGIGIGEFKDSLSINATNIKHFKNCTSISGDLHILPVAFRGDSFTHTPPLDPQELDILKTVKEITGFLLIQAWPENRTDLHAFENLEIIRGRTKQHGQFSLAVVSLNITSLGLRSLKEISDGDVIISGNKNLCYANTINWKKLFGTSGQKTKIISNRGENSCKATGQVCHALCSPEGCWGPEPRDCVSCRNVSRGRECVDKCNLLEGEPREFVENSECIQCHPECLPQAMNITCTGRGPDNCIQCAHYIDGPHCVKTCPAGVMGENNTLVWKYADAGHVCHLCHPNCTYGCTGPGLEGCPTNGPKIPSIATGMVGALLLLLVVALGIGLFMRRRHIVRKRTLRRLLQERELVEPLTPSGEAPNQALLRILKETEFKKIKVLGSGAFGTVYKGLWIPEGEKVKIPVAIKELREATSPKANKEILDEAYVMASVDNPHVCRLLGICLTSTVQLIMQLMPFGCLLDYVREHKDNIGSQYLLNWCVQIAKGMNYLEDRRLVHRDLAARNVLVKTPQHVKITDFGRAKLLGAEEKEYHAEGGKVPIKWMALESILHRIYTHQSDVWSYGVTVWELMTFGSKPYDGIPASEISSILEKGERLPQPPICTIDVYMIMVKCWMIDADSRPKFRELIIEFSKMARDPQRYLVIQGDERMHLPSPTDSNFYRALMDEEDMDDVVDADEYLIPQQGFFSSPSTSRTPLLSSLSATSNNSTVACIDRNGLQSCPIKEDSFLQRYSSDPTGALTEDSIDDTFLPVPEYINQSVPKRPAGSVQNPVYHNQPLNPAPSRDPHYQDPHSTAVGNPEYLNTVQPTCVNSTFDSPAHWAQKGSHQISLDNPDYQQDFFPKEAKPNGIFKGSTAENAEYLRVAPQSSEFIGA
T1 sequence (P00533 with tags, fused parts or gaps DEL746-750/T790M, form open): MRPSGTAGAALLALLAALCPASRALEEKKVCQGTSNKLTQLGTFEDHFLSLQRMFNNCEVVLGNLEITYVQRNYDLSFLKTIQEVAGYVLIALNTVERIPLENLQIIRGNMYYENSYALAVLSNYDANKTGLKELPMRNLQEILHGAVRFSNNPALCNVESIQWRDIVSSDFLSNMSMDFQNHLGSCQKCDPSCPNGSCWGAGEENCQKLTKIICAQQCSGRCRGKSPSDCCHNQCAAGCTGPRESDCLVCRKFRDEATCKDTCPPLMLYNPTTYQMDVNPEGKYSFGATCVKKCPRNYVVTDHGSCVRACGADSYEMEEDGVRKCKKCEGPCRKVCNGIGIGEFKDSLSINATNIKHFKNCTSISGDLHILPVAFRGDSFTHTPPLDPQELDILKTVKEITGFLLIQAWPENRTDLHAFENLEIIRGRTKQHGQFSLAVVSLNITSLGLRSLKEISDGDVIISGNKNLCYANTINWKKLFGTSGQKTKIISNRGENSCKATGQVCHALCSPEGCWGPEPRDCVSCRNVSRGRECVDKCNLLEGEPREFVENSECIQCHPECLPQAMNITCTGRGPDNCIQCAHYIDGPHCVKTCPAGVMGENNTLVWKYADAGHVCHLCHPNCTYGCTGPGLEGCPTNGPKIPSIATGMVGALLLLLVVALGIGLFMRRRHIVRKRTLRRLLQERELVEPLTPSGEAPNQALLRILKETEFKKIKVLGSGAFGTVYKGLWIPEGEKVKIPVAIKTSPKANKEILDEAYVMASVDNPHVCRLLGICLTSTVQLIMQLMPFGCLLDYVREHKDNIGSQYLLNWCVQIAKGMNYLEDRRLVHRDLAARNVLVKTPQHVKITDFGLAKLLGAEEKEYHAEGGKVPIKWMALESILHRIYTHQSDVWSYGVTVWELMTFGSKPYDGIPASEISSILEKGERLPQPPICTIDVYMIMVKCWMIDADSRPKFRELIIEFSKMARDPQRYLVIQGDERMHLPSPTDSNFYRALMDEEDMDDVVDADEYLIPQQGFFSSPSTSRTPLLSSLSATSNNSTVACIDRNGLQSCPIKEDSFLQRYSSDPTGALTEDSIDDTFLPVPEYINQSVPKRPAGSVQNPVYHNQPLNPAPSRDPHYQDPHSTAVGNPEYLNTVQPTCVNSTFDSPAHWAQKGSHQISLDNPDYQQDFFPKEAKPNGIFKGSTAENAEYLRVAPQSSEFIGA
T2 sequence (P00533 whole entry T790M/L858R): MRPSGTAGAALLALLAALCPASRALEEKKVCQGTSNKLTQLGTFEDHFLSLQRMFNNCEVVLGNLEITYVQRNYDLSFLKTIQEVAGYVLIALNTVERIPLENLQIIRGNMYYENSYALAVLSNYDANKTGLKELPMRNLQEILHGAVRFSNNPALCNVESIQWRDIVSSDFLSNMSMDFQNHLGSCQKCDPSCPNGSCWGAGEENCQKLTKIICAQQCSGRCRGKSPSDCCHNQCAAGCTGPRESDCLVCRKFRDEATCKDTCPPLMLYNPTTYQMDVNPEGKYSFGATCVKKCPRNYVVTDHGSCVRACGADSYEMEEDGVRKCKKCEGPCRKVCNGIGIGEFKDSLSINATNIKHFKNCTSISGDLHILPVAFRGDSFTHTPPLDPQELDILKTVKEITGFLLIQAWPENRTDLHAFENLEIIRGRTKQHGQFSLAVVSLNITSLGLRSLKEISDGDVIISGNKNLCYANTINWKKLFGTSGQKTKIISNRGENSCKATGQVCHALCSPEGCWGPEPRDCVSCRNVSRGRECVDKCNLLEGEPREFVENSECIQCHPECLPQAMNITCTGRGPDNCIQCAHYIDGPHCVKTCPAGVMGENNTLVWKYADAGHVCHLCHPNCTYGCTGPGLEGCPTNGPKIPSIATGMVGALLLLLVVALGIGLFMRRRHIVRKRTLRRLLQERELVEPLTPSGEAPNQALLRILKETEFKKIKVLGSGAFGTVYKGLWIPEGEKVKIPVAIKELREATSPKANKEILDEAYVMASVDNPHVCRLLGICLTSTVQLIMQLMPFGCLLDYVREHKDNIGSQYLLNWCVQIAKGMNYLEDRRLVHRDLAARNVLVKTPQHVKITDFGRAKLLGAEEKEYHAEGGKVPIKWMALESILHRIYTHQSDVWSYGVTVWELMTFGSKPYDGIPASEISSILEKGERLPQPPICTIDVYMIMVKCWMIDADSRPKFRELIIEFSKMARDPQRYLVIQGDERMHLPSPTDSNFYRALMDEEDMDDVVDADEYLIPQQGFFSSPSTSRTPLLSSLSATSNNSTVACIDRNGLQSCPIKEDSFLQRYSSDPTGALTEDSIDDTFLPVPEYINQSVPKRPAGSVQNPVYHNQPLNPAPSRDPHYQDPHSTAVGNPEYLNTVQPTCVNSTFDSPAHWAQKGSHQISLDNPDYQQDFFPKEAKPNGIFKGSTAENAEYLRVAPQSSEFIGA

For the compound `C=CC(=O)Nc1cc(Nc2ncc(Cl)c(Nc3ccccc3P(C)(C)=O)n2)c(OC)cc1N1CCC(N)C1` (stereo not drawn) [Example 57, N-(2-(3-aminopyrrolidin-1-yl)-5-((5-chloro-4-((2-(dimethylphosphoryl)phenyl)amino)pyrimidin-2-yl)amino)-4-methoxyphenyl)acrylamide], the IC50 in assay [1] is below 50 nM; on EGFR L858R it was below 50 nM; at EGFR L858R/T790M it was below 50 nM; in assay [4], at least 250 nM. Besides, the GI50 in assay [2] and in assay [3] was at least 250 nM throughout.
For the compound `COc1ccc(NC(=O)/C=C/C(=O)NCCN(C)C)cc1Nc1ncc(Cl)c(Nc2ccccc2P(C)(C)=O)n1` [Example 58, N1-(3-((5-chloro-4-((2-(dimethylphosphoryl)phenyl)amino)pyrimidin-2-yl)amino)-4-methoxyphenyl)-N4-(2-(dimethylamino)ethyl)fumaramide], the IC50 in assay [1] is below 50 nM; on EGFR L858R, below 50 nM; at EGFR L858R/T790M it was below 50 nM; in assay [4] it was at least 250 nM. The GI50 in assay [2] and in assay [3] was at least 250 nM each time.
For the compound `COc1ccc(NC(=O)/C=C/C(=O)N2CCN(C)CC2)cc1Nc1ncc(Cl)c(Nc2ccccc2P(C)(C)=O)n1` [Example 59, (E)—N-(3-((5-chloro-4-((2-(dimethylphosphoryl)phenyl)amino)pyrimidin-2-yl)amino)-4-methoxyphenyl)-4-(4-methylpiperazin-1-yl)-4-oxobut-2-enamide], the IC50 is below 50 nM in assay [1], below 50 nM at EGFR L858R, below 50 nM at EGFR L858R/T790M and at least 250 nM in assay [4]. The GI50 was 101 to 250 nM in assay [2] and at least 250 nM in assay [3].
On to `COc1ccc(NC(=O)/C=C/C(=O)N(C)C)cc1Nc1ncc(Cl)c(Nc2ccccc2P(C)(C)=O)n1` [Example 60, N1-(3-((5-chloro-4-((2-(dimethylphosphoryl)phenyl)amino)pyrimidin-2-yl)amino)-4-methoxyphenyl)-N4,N4-dimethylfumaramide], for which the IC50 in assay [1] was at least 250 nM; on EGFR L858R it was 50 to 100 nM; on EGFR L858R/T790M, 101 to 250 nM; in assay [4] it was at least 250 nM. For the same compound, the GI50 in assay [2] and in assay [3] was at least 250 nM throughout.
Turning to `COc1ccc(NC(=O)/C=C\C(=O)O)cc1Nc1ncc(Cl)c(Nc2ccccc2P(C)(C)=O)n1` [Example 61, (Z)-4-((3-((5-chloro-4-((2-(dimethylphosphoryl)phenyl)amino)pyrimidin-2-yl)amino)-4-methoxyphenyl)amino)-4-oxobut-2-enoic acid], the IC50 in assay [1] was at least 250 nM; on EGFR L858R it was at least 250 nM; on EGFR L858R/T790M, 101 to 250 nM; in assay [4], at least 250 nM. Besides, the GI50 in assay [2] and in assay [3] was at least 250 nM throughout.
For `COc1ccc(NC(=O)/C=C\C(=O)N(C)C)cc1Nc1ncc(Cl)c(Nc2ccccc2P(C)(C)=O)n1` [Example 62, N1-(3-((5-chloro-4-((2-(dimethylphosphoryl)phenyl)amino)pyrimidin-2-yl)amino)-4-methoxyphenyl)-N4,N4-dimethylmaleamide], the IC50 (in assay [1]; on EGFR L858R; on EGFR L858R/T790M; in assay [4]) was at least 250 nM throughout. Also, the GI50 in assay [2] and in assay [3] was at least 250 nM each time.
Turning to `COc1ccc(NC(=O)/C=C\C(=O)N2CCN(C)CC2)cc1Nc1ncc(Cl)c(Nc2ccccc2P(C)(C)=O)n1` [Example 63, (Z)-N-(3-((5-chloro-4-((2-(dimethylphosphoryl)phenyl)amino)pyrimidin-2-yl)amino)-4-methoxyphenyl)-4-(4-methylpiperazin-1-yl)-4-oxobut-2-enamide], the IC50 was at least 250 nM in assay [1], 101 to 250 nM at EGFR L858R, at least 250 nM on EGFR L858R/T790M and at least 250 nM in assay [4]. Besides, the GI50 in assay [2] and in assay [3] was at least 250 nM throughout.
Turning to `COc1ccc(NC(=O)/C=C\C(=O)NCCN(C)C)cc1Nc1ncc(Cl)c(Nc2ccccc2P(C)(C)=O)n1` [Example 64, N1-(3-((5-chloro-4-((2-(dimethylphosphoryl)phenyl)amino)pyrimidin-2-yl)amino)-4-methoxyphenyl)-N4-(2-(dimethylamino)ethyl)maleamide], the IC50 was at least 250 nM in assay [1], below 50 nM on EGFR L858R, below 50 nM on EGFR L858R/T790M and at least 250 nM in assay [4]. The GI50 in assay [2] and in assay [3] was at least 250 nM throughout.
In the case of `C=CC(=O)Nc1cc(Nc2ncc(Cl)c(Nc3ccccc3P(C)(C)=O)n2)c(OC)cc1C#CC(C)(C)N` [Example 65, N-(2-(3-amino-3-methylbut-1-yn-1-yl)-5-((5-chloro-4-((2-(dimethylphosphoryl)phenyl)amino)pyrimidin-2-yl)amino)-4-methoxyphenyl)acrylamide], the IC50 is below 50 nM in assay [1], below 50 nM at EGFR L858R, below 50 nM on EGFR L858R/T790M and at least 250 nM in assay [4]. Moreover, the GI50 in assay [2] and in assay [3] was below 50 nM each time.
Turning to `C=CC(=O)Nc1cc(Nc2ncc(Cl)c(Nc3ccccc3P(C)(C)=O)n2)c(OC)cc1N(C)CCN(C)CCF` [Example 67, N-(5-((5-chloro-4-((2-(dimethylphosphoryl)phenyl)amino)pyrimidin-2-yl)amino)-2-((2-((2-fluoroethyl)(methyl)amino)ethyl)(methyl)amino)-4-methoxyphenyl)acrylamide], the IC50 was below 50 nM in assay [1], below 50 nM on EGFR L858R, below 50 nM at EGFR L858R/T790M and at least 250 nM in assay [4]. The GI50 in assay [2] and in assay [3] was below 50 nM throughout.
Take `C=CC(=O)Nc1cc(Nc2ncc(Cl)c(Nc3ccccc3P(C)(C)=O)n2)c(OC)cc1N1CCC(N2CCC2)C1` (stereo not drawn) [Example 68, N-(2-(3-(azetidin-1-yl)pyrrolidin-1-yl)-5-((5-chloro-4-((2-(dimethylphosphoryl)phenyl)amino)pyrimidin-2-yl)amino)-4-methoxyphenyl)acrylamide]: the IC50 in assay [1] is below 50 nM; at EGFR L858R, below 50 nM; on EGFR L858R/T790M, below 50 nM; in assay [4] it was at least 250 nM. Also, the GI50 in assay [2] and in assay [3] was below 50 nM in each case.
For `C=CC(=O)Nc1cc(Nc2ncc(Cl)c(Nc3ccccc3P(C)(C)=O)n2)c(OC)cc1N1CCC(N2CCCCC2)CC1` [Example 69, N-(2-([1,4′-bipiperidin]-1-yl)-5-((5-chloro-4-((2-(dimethylphosphoryl)phenyl)amino)pyrimidin-2-yl)amino)-4-methoxyphenyl)acrylamide], the IC50 in assay [1] is below 50 nM; at EGFR L858R, below 50 nM; at EGFR L858R/T790M, below 50 nM; in assay [4], at least 250 nM. Besides, the GI50 in assay [2] and in assay [3] was below 50 nM in each case.
For the compound `C=CC(=O)Nc1cc(Nc2ncc(Cl)c(Nc3ccccc3P(C)(C)=O)n2)c(OC)cc1N1CCC(N2CCOCC2)CC1` [Example 70, N-(5-((5-chloro-4-((2-(dimethylphosphoryl)phenyl)amino)pyrimidin-2-yl)amino)-4-methoxy-2-(4-morpholinopiperidin-1-yl)phenyl)acrylamide], the IC50 was below 50 nM in assay [1], below 50 nM on EGFR L858R, below 50 nM on EGFR L858R/T790M and at least 250 nM in assay [4]. For the same compound, the GI50 in assay [2] and in assay [3] was below 50 nM throughout.
Regarding `C=CC(=O)Nc1cc(Nc2ncc(Cl)c(Nc3ccccc3P(C)(C)=O)n2)c(OC)cc1N1CCC(N2CCCN(C)CC2)CC1` [Example 71, N-(5-((5-chloro-4-((2-(dimethylphosphoryl)phenyl)amino)pyrimidin-2-yl)amino)-4-methoxy-2-(4-(4-methyl-1,4-diazepan-1-yl)piperidin-1-yl)phenyl)acrylamide], the IC50 was below 50 nM in assay [1], below 50 nM on EGFR L858R, below 50 nM at EGFR L858R/T790M and at least 250 nM in assay [4]. The GI50 lay in the range of 50 to 100 nM in assay [2] and 101 to 250 nM in assay [3].
`C=CC(=O)Nc1cc(Nc2ncc(Cl)c(Nc3ccccc3P(C)(C)=O)n2)c(OC)cc1N1CCC(N2CCCC2)CC1` [Example 72, N-(5-((5-chloro-4-((2-(dimethylphosphoryl)phenyl)amino)pyrimidin-2-yl)amino)-4-methoxy-2-(4-(pyrrolidin-1-yl)piperidin-1-yl)phenyl)acrylamide]: the IC50 in assay [1] was 50 to 100 nM; at EGFR L858R it was below 50 nM; on EGFR L858R/T790M, below 50 nM; in assay [4], at least 250 nM. Also, the GI50 is below 50 nM in assay [2] and 101 to 250 nM in assay [3].
